{"source": "patent US10016424B2", "about": "“Method and pharmaceutical composition for use in the treatment of epilepsy” (INSERM (Institut National de la Sante et de la Recherche …, priority 2013, dated 2018)", "key": {"[1]": {"system": "dentate gyrus of organotypic slices", "experiment": "Spontaneous interictal-like activity, extracellular field recordings in pilocarpine-treated organotypic hippocampal slice cultures", "type": "cell-based, mouse", "experimental": "Hippocampal/entorhinal cortex slices (350 μm) were prepared from pre-genotyped GluK2−/− and WT mice (P9-10, FVB/N background) using a McIlwain tissue chopper. Slices were placed on mesh inserts (Millipore # PICMORG50) inside culture dishes containing 1 ml of the following medium: MEM 50%, HS 25%, HBSS 25%, HEPES 15 mM glucose 6.5 mg/ml and insulin 0.1 mg/ml. Culture medium was changed every 2-3 days and slices maintained in an incubator at 37° C./5% CO2. Pilocarpine (0.5 μM) was added to the medium at 5 D.I.V and removed at 7 D.I.V; slices were utilized for experiments from 9 D.I.V.\nCultured or acute slices were individually transferred to a recording chamber maintained at 30-32° C. and continuously perfused (2 ml/min) with oxygenated normal or adapted ACSF containing 5 μM gabazine. Local field potentials were made in the granule cell layer of the DG with glass electrodes (2-3 MΩ; filled with normal ACSF) using a DAM-80 amplifier (low filter, 1 Hz; […], 3 KHz; World Precision Instruments, Sarasota, Fla.). For evoked synaptic transmission, electrical stimulation was performed with a bipolar NiCh electrode (#762000, AM systems). Whole-cell voltage-clamp recordings of DGCs were made using tight-seal electrodes (5-8 MΩ) filled with an internal solution containing the following (in mM): 135 gluconic acid, 135 CsOH, 10 MgCl2, 0.1 CaCl2, 1 EGTA, 10 HEPES, 2 MgATP, 0.4 NaGTP, and 0.5% biocytin, pH 7.25. We used a Multiclamp 700B amplifier (Molecular Devices): data were filtered at 2 kHz, digitized (20 kHz) with a Digidata 1440A (Molecular Devices) to a PC, and acquired using Clampex 10.1 software (PClamp, Molecular Devices). Signals were analyzed off-line using Clampfit 9.2 (PClamp) and MiniAnalysis 6.0.1 (Synaptosoft, Decatur, Ga.). In organotypic slices, spontaneous EPSCs were recorded at the reversal potential for GABAergic currents (Vh=−70 mV). To characterize the nature and kinetic properties of fast and slow events, miniature EPSCs (mEPSCs) evoked in Sr2+ conditions (external Ca2+ was substituted with 1.2 mM Sr2+) were recorded in DGCs from GluK2−/− and WT slices. Electrical stimulation was made in the molecular layer in the continued presence of 5 μM gabazine and 40 μM D-APV; asynchronous mEPSCs were measured during the 300 ms period after the stimulus artifact. […] In cultured slices, visual representation of time-frequency analysis of local field potentials was performed using Autosignal software (Seasolve 1.7). In brief, field activity was highpass-filtered (>100 Hz) and time-frequency analysis performed using a continuous wavelet (Morlet) that reported integrated power (time-integral-squared amplitude, TISA) across time. Filtered traces were also analyzed by Fourier analysis (Hamming) using Clampfit 9.2. In acute hippocampal slices, intensity of antidromically-evoked bursts was quantified using coastline index (Epsztein et al., 2005).\nThe role of KARs in spontaneous epileptiform activity was then tested using extracellular field recordings in cultured slices. Recordings were performed in 5 mM K+-containing ACSF and in the presence of 5 μM gabazine in order to enhance neuronal excitability and to reliably record stereotyped spontaneous interictal-like activity (Berdichevsky et al., 2012)."}, "[2]": {"system": "pilocarpine-status epilepticus model of chronic TLE", "experiment": "Interictal spikes, in vivo local field potential recordings in DG of anesthetized pilocarpine-treated mice", "design": "species or system mouse", "experimental": "All experiments were approved by the Institut National de la Santé et de la Recherche Médicale animal care and use committee of May 29, 2001 (2001-464) and the European community council directive of Nov. 24, 1986 (86/609/EEC). Mice (FVB/N background) had access to food and water ad libitum and were housed under a 12 h light/dark cycle at 22-24° C. Male GluK2−/− and WT mice (P60-80) were given scopolamine (1 mg/kg) subcutaneously (s.c.) 15 minutes prior to s.c. administration of pilocarpine (200-600 mg/kg). A ramp protocol was used whereby animals were given an initial dose of 200 mg/kg followed by half-doses every 30 minutes until seizures appeared. Both WT and GluK2−/− mice typically experienced at least two seizures prior to entering status epilepticus (SE). Diazepam (10 mg/kg) was administered 45 minutes after onset of SE.\nNaïve wildtype (WT) and pilocarpine-treated WT or GluK2−/− mice (5-6 months old) were anaesthetized with xylazine 13 mg/kg/ketamine 66 mg/kg and placed in a stereotaxic frame (supplemental dosing was administered as required). Body temperature was maintained using a heating pad. The scalp was removed and a small bone window was drilled above the hippocampus (2.1 mm posterior to bregma and 1.4 mm lateral to midline over the right hemisphere). For local field potentials recordings performed in anaesthetized mice, a glass electrode ([…]) filled with Ringer solution (135 mM NaCl, 5.4 mM KCl, 1 mM MgCl2, 1.8 mM CaCl2, 5 mM HEPES) was inserted into the DG (depth, 1650 μm). Recordings were performed using a DAM-80 amplifier (low filter, 1 Hz; high filter, 3 KHz; World Precision Instruments, Sarasota, Fla.). UBP310 or vehicle (saline/10% DMSO) was subsequently injected intraperitoneally (i.p.). During recordings and subsequent analysis, the experimenter was blind to the genotype. For intrahippocampal electroencephalographic (EEG) recordings performed in freely-moving animal a stainless steel electrode (Plastic one, Roanoke, Va.) was inserted into the DG under anesthesia (see above). After a 4 day recovery, EEG (amplified (1000×), filtered at 0.16-97 Hz pass, acquired at 500 Hz) was monitored using a telemetric system (Data Sciences International, St. Paul, Minn.) for 4 days, 24 h per day. Intrahippocampal EEG traces represented the difference in potential between the electrode inserted into the DG and an electrode positioned above the cerebellum; food and water were given ad libitum. UBP310 or vehicle (saline/10% DMSO) was injected intraperitoneally twice a day.\nIn TLE, interictal spikes (ISs) represent one of the best documented biomarkers of epilepsy in patient and animal models (Staley et al., 2005). […]"}, "[3]": {"system": "dentate gyrus of organotypic slices", "experiment": "Spontaneous interictal-like activity, extracellular field recordings in pilocarpine-treated organotypic hippocampal slice cultures", "type": "cell-based, mouse", "conditions": "P=0.902, n=6"}, "[4]": {"conditions": "slices from WT mice, 10 μM SYM2081 or 5 μM UBP310"}}, "data": [{"smiles": "Cc1cn(C[C@H](N)C(=O)O)c(=O)n(Cc2ccsc2C(=O)O)c1=O", "note": "[UBP310]", "values": [{"measurement": "effect on interictal-like activity in GluK2-/- mice slices", "setting": "[1]; GluK2-/- slices, P=0.563, n=7", "result": "no effect"}, {"measurement": "alteration of the PD phase (power of paroxysmal discharge)", "setting": "[1]; [4]", "result": "No significant alteration"}, {"measurement": "reduction of power of the bursts in the late MB phase", "setting": "[1]; [4]", "result": 67, "unit": "%"}, {"measurement": "reduction of frequency of interictal-like activity", "setting": "[1]; slices from WT mice, 10 μM SYM2081 or 5 μM UBP310, 5 mM K+ ACSF, 5 μM gabazine", "result": 49, "unit": "%"}, {"measurement": "frequency of interictal-like activity", "setting": "[1]; slices from WT mice, 10 μM SYM2081 or 5 μM UBP310, without antagonist 3.2±0.4, mean±SEM", "result": "1.47±0.4", "unit": "events/min"}, {"measurement": "reduction of number of interictal spikes (ISs)", "setting": "[2]; 60 mg/kg intraperitoneal, WT epileptic mice, anesthetized", "result": 64, "unit": "%"}, {"measurement": "change in IS amplitude", "setting": "[2]; 60 mg/kg intraperitoneal, WT epileptic mice, data not shown", "result": "no change in amplitude"}, {"measurement": "effect on number of ISs in GluK2-/- mice", "setting": "[2]; 60 mg/kg, GluK2-/- mice, P=0.497", "result": "no effect"}, {"measurement": "effect on IS number at dose reduced by 10 times", "setting": "[2]; injected dose reduced by 10 times from 60 mg/kg, P=0.548", "result": "no significant effect"}, {"measurement": "reduction of frequency of interictal-like activity in GluK1-/- versus WT mice", "setting": "[3]", "result": "similarly effective"}]}]}
